Columns and labels:
EAE mice = assay: Active EAE (MOG33-55/CFA), 4EGI-1 from initiation of EAE; type: in vivo, mouse
Description: Ten-week old female mice purchased from Jackson Laboratory were subcutaneously injected at two sites with 100 μL […] emulsified in CFA (Hooke Labs) per flank. On the same day, 6 hours later, and on day 2, mice were injected with 100 ng of pertussis toxin in 200 μL i.p. Mice were monitored daily and scored on a scale of 0-5 where 0, no disease; 1, tail paralysis; 2; hind limb paresis; 3, complete hind limb paralysis; 4, front limb weakness and hind limb paralysis, and 5, moribund state. When stated, mice were either administered 25 mg/kg 4EGI-1 or vehicle i.p. from d 0 to 21 following EAE induction or 75 mg/kg 4EGI-1 or vehicle i.p. from day 12 to 21 following EAE induction and randomization. LFB-H images imported into FIJI underwent color deconvolution to isolate myelin staining. A binary image was generated and % myelination of the spinal cord was calculated. Spinal cords from mice not subjected to EAE were set to 100% and all other samples from the same group were normalized. H&E images imported into FIJI underwent color deconvolution to isolate hematoxylin staining. A binary image was generated and % infiltration of the spinal cord of was calculated. Five-micron sections of paraffin embedded tissue were stained with Akoya Biosciences® Opal™ multiplex automation kit reagents unless stated otherwise. Automated staining was performed on Leica BondRX® autostainer. The protocol was performed according to manufacturers' instructions with primary antibodies to CD19 (Cell Signaling Technology, cat #90176) and CD4 (Cell Signaling Technology, cat #25229). Briefly, all slides underwent sequential epitope retrieval with Leica Biosystems epitope retrieval 2 solution (EDTA based, pH9, Cat. AR9640), primary and secondary antibody incubation and tyramide signal amplification (TSA) with Opal® fluorophores Op690 and Op520. Primary and secondary antibodies were removed during epitope retrieval steps while fluorophores remain covalently attached to the epitope. Semi-automated image acquisition was performed on a Vectra® Polaris multispectral imaging system. After whole slide scanning at 10× the tissue was manually outlined to select fields for multispectral imaging at 20×. Phenochart® software from Akoya Biosciences was used for spectral unmixing of the whole slide scans. Scans were imported into QuPath and representative images were exported into FIJI.

TH1 and TH17 cells = assay: S. aureus sub-dermal ear pinnae infection model; type: in vivo, mouse
Description: S. aureus subspecies Rosenbach (ATCC 25923) was grown overnight in TSB broth (Corning). Following quantification, 1×10^8 CFU of S. aureus in 100 μL were injected subdermal in the base of the ear pinnae. On days 0 through 7, mice were treated daily with i.p. 25 mg/kg 4EGI-1 or vehicle. On day 8, mice were euthanized and the whole infected ear was collected along with the cervical lymph node (CLN) and blood. Blood was allowed to clot at room temperature, spun at 2,000×g for 30 minutes, and serum was collected and frozen until analysis. Ear thickness was measured with a digital caliper on day 8.
Spleens, draining lymph nodes, and brains were dissociated with the plunger-end of a syringe and passed through a 70 μm nylon filter. Splenocytes were subject to RBC lysis with ACK (Ammonium-Chloride-Potassium). Ears were subject to mechanical dissociation with scissors prior to incubation in 1 mL PBS in a 48-well plate with 100 μg/mL Liberase TL and 20 μg/mL DNase I for 1.5 hours at 37° C. Following incubation, cells were further dissociated by passing through a syringe, quenched with PBS+2% FCS, and filtered through a 70 μm nylon filter. Lungs were mechanically dissociated with a razor blade and incubated in a 6 cm dish with 5 mLs RPMI containing 250 μg/mL collagenase, 50 μg/mL Liberase TL, 1 mg/mL hyaluronidase, and 200 μg/mL DNase I for 30 minutes. Following incubation, cells quenched with PBS+2% FCS, and filtered through a 70 μm nylon filter. Ear and lung cells were subject to lymphocyte isolation using a gradient (Lymphocyte Separation Medium; Cellgro). Vertebral columns were flushed with PBS through a 19-gauge needle to remove intact spinal cords. Spinal cords were subject to mechanical dissociation with scissors and incubation in 1 mL PBS with 200 μg/mL DNase I and 50 μg/mL Liberase TL for 30 minutes at 37° C. Following incubation, cells were quenched with PBS+2% FCS and filtered through a 70 μm nylon filter.
Single cell suspensions of noted tissues were resuspended in T cell media with 1× PMA/Ionomycin (cell activation cocktail; BioLegend®) and 1× brefeldin A (BioLegend®) for 5-6 hours at 37° C. Following stimulation, cells were incubated with a live/dead viability marker and extracellular stain prior to fix and permeabilization with Fixation/Permeabilization Solution kit (BD Biosciences) according to manufacturer's instructions to detect intracellular cytokines IL-17A, IFN-γ, or IL-13. Concentration and clones of flow cytometry antibodies used for staining detailed in Table 2.
For quantification of OVA-specific IgG1, high-binding 96-well plates (Costar) were coated with 10 μg/mL OVA protein. For S. aureus-specific IgG1, plates were coated with heat-killed S. aureus (heat-killed at 80° C. for 30 min). For total IgE, plates were coated with 2 μg/mL rat anti-mouse IgE (Southern Biotech). Following overnight incubation at 4° C., plates were blocked with 1% BSA for 30 min at 37° C. After blocking, serum (diluted 1/20 initially then 1/2 down the plate) was incubated at 37° C. for 2 hours, plates were washed 3 times in PBS and then incubated with 1:1000 anti-mouse IgG1-HRP (Southern Biotech) or anti-mouse IgE-HRP (Southern Biotech) for 1 hour at 37° C. Plates were washed 3 times in PBS and incubated with TMB substrate. Following development, TMB Stop Solution (BioLegend®) was added and plates were read at […].

SMILES: O=C(O)C(Cc1ccccc1[N+](=O)[O-])=NNc1nc(-c2ccc(Cl)c(Cl)c2)cs1 (mixture of isomers) [4EGI-1]
- clinical EAE severity (daily clinical score) (EAE mice; 25 mg/kg daily i.p., day 0 to 21): significantly reduced
- disease-associated weight loss (EAE mice; 25 mg/kg daily i.p., from EAE induction): significantly reduced
- ELFs (ectopic lymphoid follicles) in spinal cord (EAE mice; 25 mg/kg daily, EAE mice): substantially reduced
- numbers of CD4+ T and B cells in the spinal cords (EAE mice; 25 mg/kg daily, EAE mice, immunofluorescence): strongly reduced
- level of myelination of the spinal cord (normal = 100%) (EAE mice; 25 mg/kg daily, Luxol fast blue): ~98%
- CD4+ T cells producing IFN-γ in spinal cord and brain (EAE mice; 25 mg/kg daily, day 21 of EAE): almost abolished
- CD4+ T cells producing IL-17A in spinal cord and brain (EAE mice; 25 mg/kg daily, day 21 of EAE): almost abolished
- reduction of CD4+ T cells in the brain (EAE mice; 25 mg/kg daily, day 21 of EAE): 3 fold
- reduction of CD4+ T cells in the spinal cord (EAE mice; 25 mg/kg daily, day 21 of EAE): 3 fold
- reduction of TFH cells in the spleen (EAE mice; 25 mg/kg daily, day 21 of EAE): 3 fold
- differentiation or effector function of TH1 cells (T-bet+ or IFN-γ+) in the skin (TH1 and TH17 cells; 25 mg/kg daily i.p., day 8): no effect
- differentiation or effector function of TH17 cells (RORγT+ or IL17A+) in the skin (TH1 and TH17 cells; 25 mg/kg daily i.p., day 8): no effect
- general skin inflammation (ear thickness and skin neutrophil levels) (TH1 and TH17 cells; 25 mg/kg daily i.p., day 8): no effect
- formation of GC B cells in draining lymph nodes (TH1 and TH17 cells; cervical lymph nodes, day 8): strongly reduced
- formation of TFH cells in draining lymph nodes (TH1 and TH17 cells; cervical lymph nodes, day 8): strongly reduced
- secretion of class-switched immunoglobulins (TH1 and TH17 cells; serum S. aureus-specific IgG1, day 8): strongly reduced
